# Experimental data reported in US5086066A, “Method of providing anxiolytic and antipsychotic treatment with substituted benzamides” (priority 1988, dated 1992).
# Assays:
# [1] = system: rats; experiment: hyperactivity induced by injection of amphetamine into the nucleus accumbens (motor activity), antipsychotic activity; format: in vivo
# Procedure: Tests were conducted to measure the antipsychotic activity of the compounds of the invention. In particular, the hyperactivity induced in rats by the perfusion of amphetamine into the nucleus accumbens was evaluated. This test consists in determining the effect of the compounds of the invention on hyperactivity produced in rats by the injection of amphetamine into the nucleus accumbens. Hyperactivity was induced by injecting 20 μg of amphetamine bilaterally into the nucleus accumbens. The compounds of the invention were administered subcutaneously at doses of 1 mg/kg and 10 mg/kg, 40 minutes before the injection of amphetamine. For each dose of test product, a group of 5 animals was used. A group treated only with amphetamine and a reference group which received only an inert vehicle comprised 10 animals.
# Immediately after the injection of amphetamine, the rats were placed in individual cages equipped with photoelectric cells. Motor activity, characterized by the number of shifts from place to place in these cages, was determined by the number of interruptions of a light beam striking these cells. The measurements were made during the 80 minutes following the injection of amphetamine. The results, expressed as the number of shifts from place to place per 10-minute period, are collated in Table 2.
# [2] = system: mice; experiment: two compartment (dark and light) box test, anxiolytic activity; format: in vivo; conditions: for % time in black compartment / Black compartment rearings/5 min / Black compartment transits/5 min / Delay white → black / White compartment rearings/5 min / White compartment transits/5 min: 40 min after administration, S.E.M. <12.6%, n = 5; for minimal effective dose: Mus musculus, sc, 40 min, subcutaneous, mice, read-out: dose at and above which anxiolytic activity is manifested
# Procedure: The two compartment box test was conducted in mice to evaluate anxiolytic activity. This test is based on a natural aversion of mice to light. The apparatus used is a box containing two compartments, one of which is dark (labeled "black compartment" in the Table 1) and the other illuminated (labeled "white compartment" in Table 1). The apparatus is designed to allow the animal to choose between staying in either of the two compartments. Under normal conditions, the mice avoid light and usually remain in the dark compartment. Under the influence of an anxiolytic agent, however, exploration of the illustrated compartment predominates. The test consists of placing each mouse in the center of the illuminated compartment and observing the animal's behavior by video system for 5 minutes. The number of exploratory rearings and the number of displacements (the crossing of lines traced on the floor of each compartment constitute "passages") are then recorded for each compartment. An anxiolytic effect induced by a drug, such as diazepam, is characterized by an increase in the number of exploratory rearings and in the number of passages into the illuminated compartment. The compounds of the invention were injected subcutaneously at variable doses, each dose being administered to a group of 5 mice.
# [3] = acute toxicity, median lethal dose (LD50) intravenously; conditions: mouse, in vivo, iv
# From the text: The compounds of the invention were also subjected to a study of acute toxicity when injected intravenously in male mice and female mice, which enabled the median lethal doses (LD50) to be determined.
smiles,measurement,setting,value
"CC(N)Cc1ccccc1 (stereo not drawn) [Amphetamine, amphetamine, reference compound]",Motor activity,"[1]; amphetamine alone 20 μg bilaterally into nucleus accumbens, time 10 min",31 ± 4 shifts from place to place/10
same,Motor activity,"[1]; amphetamine alone 20 μg bilaterally into nucleus accumbens, time 20 min",48 ± 5 shifts from place to place/10
same,Motor activity,"[1]; amphetamine alone 20 μg bilaterally into nucleus accumbens, time 30 min",66 ± 7 shifts from place to place/10
same,Motor activity,"[1]; amphetamine alone 20 μg bilaterally into nucleus accumbens, time 40 min",59 ± 7 shifts from place to place/10
same,Motor activity,"[1]; amphetamine alone 20 μg bilaterally into nucleus accumbens, time 50 min",36 ± 5 shifts from place to place/10
same,Motor activity,"[1]; amphetamine alone 20 μg bilaterally into nucleus accumbens, time 60 min",29 ± 4 shifts from place to place/10
same,Motor activity,"[1]; amphetamine alone 20 μg bilaterally into nucleus accumbens, time 70 min",19 ± 3 shifts from place to place/10
same,Motor activity,"[1]; amphetamine alone 20 μg bilaterally into nucleus accumbens, time 80 min",8 ± 3 shifts from place to place/10
"CCN(CC)CCNC(=O)c1cc(Cl)c(NC2=NC(C)CN2)cc1OC (stereo not drawn) [Compound 1, N-[2-(diethylamino)ethyl]-2-methoxy-4-[(4,5-dihydro-4-methyl-1H-imidazol-2-yl)amino]-5-chlorobenzamide]",% time in black compartment,[2]; 0.01 mg/kg s.c.,36%
same,Black compartment rearings/5 min,[2]; 0.01 mg/kg s.c.,16 rearings/5 min
same,Black compartment transits/5 min,[2]; 0.01 mg/kg s.c.,37 transits/5 min
same,Delay white → black,[2]; 0.01 mg/kg s.c.,19 s
same,White compartment rearings/5 min,[2]; 0.01 mg/kg s.c.,57 rearings/5 min
same,White compartment transits/5 min,[2]; 0.01 mg/kg s.c.,77 transits/5 min
same,% time in black compartment,[2]; 0.1 mg/kg s.c.,27%
same,Black compartment rearings/5 min,[2]; 0.1 mg/kg s.c.,14 rearings/5 min
same,Black compartment transits/5 min,[2]; 0.1 mg/kg s.c.,23 transits/5 min
same,Delay white → black,[2]; 0.1 mg/kg s.c.,22 s
same,White compartment rearings/5 min,[2]; 0.1 mg/kg s.c.,73 rearings/5 min
same,White compartment transits/5 min,[2]; 0.1 mg/kg s.c.,79 transits/5 min
same,minimal effective dose,[2],≥ 0.01 mg/kg
same,Motor activity,"[1]; 1 mg/kg s.c. 40 min before amphetamine 20 μg, time 10 min",49 ± 9 shifts from place to place/10 minutes
same,Motor activity,"[1]; 1 mg/kg s.c. 40 min before amphetamine 20 μg, time 20 min",35 ± 3 shifts from place to place/10 minutes
same,Motor activity,"[1]; 1 mg/kg s.c. 40 min before amphetamine 20 μg, time 30 min",45 ± 8 shifts from place to place/10 minutes
same,Motor activity,"[1]; 1 mg/kg s.c. 40 min before amphetamine 20 μg, time 40 min",40 ± 8 shifts from place to place/10 minutes
same,Motor activity,"[1]; 1 mg/kg s.c. 40 min before amphetamine 20 μg, time 50 min",11 ± 3 shifts from place to place/10 minutes
same,Motor activity,"[1]; 1 mg/kg s.c. 40 min before amphetamine 20 μg, time 60 min",12 ± 2 shifts from place to place/10 minutes
same,Motor activity,"[1]; 1 mg/kg s.c. 40 min before amphetamine 20 μg, time 70 min",8 ± 1 shifts from place to place/10 minutes
same,Motor activity,"[1]; 10 mg/kg s.c. 40 min before amphetamine 20 μg, time 10 min",27 ± 4 shifts from place to place/10 minutes
same,Motor activity,"[1]; 10 mg/kg s.c. 40 min before amphetamine 20 μg, time 20 min",27 ± 6 shifts from place to place/10 minutes
same,Motor activity,"[1]; 10 mg/kg s.c. 40 min before amphetamine 20 μg, time 30 min",13 ± 3 shifts from place to place/10 minutes
same,Motor activity,"[1]; 10 mg/kg s.c. 40 min before amphetamine 20 μg, time 40 min",11 ± 2 shifts from place to place/10 minutes
same,Motor activity,"[1]; 10 mg/kg s.c. 40 min before amphetamine 20 μg, time 50 min",8 ± 2 shifts from place to place/10 minutes
same,LD50,[3]; female mice,24 mg/kg
same,LD50,[3]; male mice,19.5 mg/kg
"C=CCN1CCCC1CNC(=O)c1cc(Cl)c(NC2=NC(C)CN2)cc1OC (stereo not drawn) [Compound 2, N-(1-allyl-2-pyrrolidinylmethyl)-2-methoxy-4-[(4,5-dihydro-4-methyl-1H-imidazol-2-yl)amino]-5-chlorobenzamide]",% time in black compartment,[2]; 0.01 mg/kg s.c.,49%
same,Black compartment rearings/5 min,[2]; 0.01 mg/kg s.c.,27 rearings/5 min
same,Black compartment transits/5 min,[2]; 0.01 mg/kg s.c.,30 transits/5 min
same,Delay white → black,[2]; 0.01 mg/kg s.c.,18 s
same,White compartment rearings/5 min,[2]; 0.01 mg/kg s.c.,43 rearings/5 min
same,White compartment transits/5 min,[2]; 0.01 mg/kg s.c.,51 transits/5 min
same,% time in black compartment,[2]; 0.1 mg/kg s.c.,29%
same,Black compartment rearings/5 min,[2]; 0.1 mg/kg s.c.,20 rearings/5 min
same,Black compartment transits/5 min,[2]; 0.1 mg/kg s.c.,25 transits/5 min
same,Delay white → black,[2]; 0.1 mg/kg s.c.,20 s
same,White compartment rearings/5 min,[2]; 0.1 mg/kg s.c.,83 rearings/5 min
same,White compartment transits/5 min,[2]; 0.1 mg/kg s.c.,80 transits/5 min
same,minimal effective dose,[2],≥ 0.01 mg/kg
same,LD50,[3]; female mice,42 mg/kg
same,LD50,[3]; male mice,42 mg/kg
"CCN(CC)CCNC(=O)c1cc(Br)c(NC2=NC(C)CN2)cc1OC (stereo not drawn) [Compound 3, N-[2-(diethylamino)ethyl]-2-methoxy-4-[(4,5-dihydro-4-methyl-1H-imidazol-2-yl)amino]-5-bromo-benzamide]",% time in black compartment,[2]; 0.1 mg/kg s.c.,30%
same,Black compartment rearings/5 min,[2]; 0.1 mg/kg s.c.,18 rearings/5 min
same,Black compartment transits/5 min,[2]; 0.1 mg/kg s.c.,18 transits/5 min
same,Delay white → black,[2]; 0.1 mg/kg s.c.,23 s
same,White compartment rearings/5 min,[2]; 0.1 mg/kg s.c.,97 rearings/5 min
same,White compartment transits/5 min,[2]; 0.1 mg/kg s.c.,104 transits/5 min
same,LD50,[3]; female mice,24 mg/kg
same,LD50,[3]; male mice,22 mg/kg
"CCN1CCCC1CNC(=O)c1cc(Cl)c(NC2=NC(C)CN2)cc1OC (stereo not drawn) [Compound 5, N-(1-ethyl-2-pyrrolidinylmethyl)-2-methoxy-4-[(4,5-dihydro-4-methyl-1H-imidazol-2-yl)amino]-5-chlorobenzamide]",% time in black compartment,[2]; 1 mg/kg s.c.,32%
same,Black compartment rearings/5 min,[2]; 1 mg/kg s.c.,14 rearings/5 min
same,Black compartment transits/5 min,[2]; 1 mg/kg s.c.,19 transits/5 min
same,Delay white → black,[2]; 1 mg/kg s.c.,23 s
same,White compartment rearings/5 min,[2]; 1 mg/kg s.c.,65 rearings/5 min
same,White compartment transits/5 min,[2]; 1 mg/kg s.c.,89 transits/5 min
same,% time in black compartment,[2]; 10 mg/kg s.c.,32%
same,Black compartment rearings/5 min,[2]; 10 mg/kg s.c.,15 rearings/5 min
same,Black compartment transits/5 min,[2]; 10 mg/kg s.c.,16 transits/5 min
same,Delay white → black,[2]; 10 mg/kg s.c.,22 s
same,White compartment rearings/5 min,[2]; 10 mg/kg s.c.,68 rearings/5 min
same,White compartment transits/5 min,[2]; 10 mg/kg s.c.,80 transits/5 min
"CCN(CC)CCNC(=O)c1cc(Br)c(NC2=NCCN2)cc1OC [Compound 6, N-[2-(diethylamino)ethyl]-2-methoxy-4-[(4,5-dihydro-1H-imidazol-2-yl)amino]-5-bromobenzamide]",% time in black compartment,[2]; 0.1 mg/kg s.c.,27%
same,Black compartment rearings/5 min,[2]; 0.1 mg/kg s.c.,39 rearings/5 min
same,Black compartment transits/5 min,[2]; 0.1 mg/kg s.c.,50 transits/5 min
same,Delay white → black,[2]; 0.1 mg/kg s.c.,13 s
same,White compartment rearings/5 min,[2]; 0.1 mg/kg s.c.,40 rearings/5 min
same,White compartment transits/5 min,[2]; 0.1 mg/kg s.c.,48 transits/5 min
same,LD50,[3]; female mice,118 mg/kg
same,LD50,[3]; male mice,103 mg/kg
"CCN(CC)CCNC(=O)c1cc(Cl)c(NC2=NCCO2)cc1OC [Compound 7, N-[2-(diethylamino)ethyl]-2-methoxy-4-[(4,5-dihydro-2-oxazolyl)amino]-5-chlorobenzamide]",% time in black compartment,[2]; 0.1 mg/kg s.c.,27%
same,Black compartment rearings/5 min,[2]; 0.1 mg/kg s.c.,16 rearings/5 min
same,Black compartment transits/5 min,[2]; 0.1 mg/kg s.c.,16 transits/5 min
same,Delay white → black,[2]; 0.1 mg/kg s.c.,24 s
same,White compartment rearings/5 min,[2]; 0.1 mg/kg s.c.,69 rearings/5 min
same,White compartment transits/5 min,[2]; 0.1 mg/kg s.c.,68 transits/5 min
